# Experimental data taken from patent publication US20040110124A1, “Method of enhancing radiation resistance of normal cells” (priority 2002, published 2004).
# Key:
# Type in all cases: cell-based
# Rat-1 cells = assay: Membrane potential recorded with fluorescent probe bis-oxonol
# Procedure: FIG. 1. Fluorescence measurement of Rat-1 cells before (Line A) and after (Line B) valinomycin (1.0 μM) treatment.
# (§1) Three normal cell lines (Rat-1, a fibroblast cell line; MS-1, an endothelial cell line and MDCK, a epithelial cell line) were studied. All three cell lines were cultured in Dulbecco's modified Eagle medium supplemented with 10% fetal calf serum, 100 U/ml penicillin and 100 ug/ml streptomycin (Gibco BRL, Gaithersburg, Md.) at 37° C. with 5% CO2. Cells were irradiated with a ^137Cs source at a dose rate of 300 cGy/min, and the viability of cells was measured by the MTT assay. Valinomycin was used as an agent to hyperpolarize the plasma membrane. The membrane potential was recorded with a fluorescent probe bis-oxonol, a negatively charged potential-sensitive fluorescent dye, which is distributed across the plasma membrane. Binding of this probe to intracellular components is dependent upon the membrane potential.
# Rat-1 fibroblast cells = assay: Cell survival after irradiation, MTT assay, normal fibroblast cells; details: light or radiation study, Rat-1, irradiated at 20 Gy, 1.0 μM valinomycin for 2 hours, 25% without valinomycin, read-out: relative survival (% of control)
# Procedure: (§2) FIG. 2. Effect of valinomycin on radiation response of normal fibroblast cells. Rat-1 fibroblast cells were irradiated with 0-20 Gy in presence or absence of valinomycin. Valinomycin (0.01-1.0 μM) was added in the growth media immediately prior to irradiation, and removed at 2 hours or 3 days post irradiation. Three days after irradiation, cell survival was assessed by using the MTT assay.
# as §1
# MS1 endothelial cells = assay: Cell survival after irradiation, MTT assay, normal endothelial cells; details: light or radiation study, MS-1, irradiated at 20 Gy, 1.0 μM valinomycin for 2 hours, 45% without valinomycin, read-out: relative survival (% of control)
# Procedure: (§3) FIG. 3. Effect of valinomycin on radiation response of normal endothelial cells. MS1 endothelial cells were irradiated with 0-20 Gy in the presence or absence of valinomycin. Valinomycin (0.01-1.0 μM) was added in the growth media immediately prior to irradiation, and removed at 2 hours or 3 days post irradiation. Three days after irradiation, cell survival was assessed by using the MTT assay.
# as §1
# MDCK epithelial cells = assay: Cell survival after irradiation, MTT assay, normal epithelial cells; details: Canis lupus familiaris, light or radiation study, irradiated at 20 Gy, 1.0 μM valinomycin for 2 hours, 58% without valinomycin, read-out: relative survival (% of control)
# Procedure: FIG. 4. Effect of valinomycin on radiation response of normal epithelial cells. MDCK epithelial cells were irradiated with 0-20 Gy in the presence or absence of valinomycin. Valinomycin (0.01-1.0 μM) was added in the growth media immediately prior to irradiation, and removed at 2 hours or 3 days post irradiation. Three days after irradiation, cell survival was assessed by using the MTT assay.
# as §1
# [1] = system: Rat-1, MS-1 and MDCK cells; assay: Cell survival after irradiation, MTT assay, all three normal cell lines together; details: valinomycin 0.01 μM to 1.0 μM
# Procedure: as §2, §3
# FIG. 4. Effect of valinomycin on radiation response of normal epithelial cells. […] Three days after irradiation, cell survival was assessed by using the MTT assay.
# Three normal cell lines (Rat-1, a fibroblast cell line; MS-1, an endothelial cell line and MDCK, a epithelial cell line) were studied. […] Cells were irradiated with a ^137Cs source at a dose rate of 300 cGy/min, and the viability of cells was measured by the MTT assay. […] The membrane potential was recorded with a fluorescent probe bis-oxonol, a negatively charged potential-sensitive fluorescent dye, which is distributed across the plasma membrane. […]
compound,measurement,setting,value
CC(C)[C@@H]1NC(=O)[C@H](C)OC(=O)[C@@H](C(C)C)NC(=O)[C@@H](C(C)C)OC(=O)[C@H](C(C)C)NC(=O)[C@H](C)OC(=O)[C@@H](C(C)C)NC(=O)[C@@H](C(C)C)OC(=O)[C@H](C(C)C)NC(=O)[C@H](C)OC(=O)[C@@H](C(C)C)NC(=O)[C@@H](C(C)C)OC1=O [valinomycin],"fluorescent reading, plasma membrane polarization","Rat-1 cells; valinomycin 1.0 μM, incubation 2 hours, Rat-1 cells (FIG. 1)",decrease in fluorescent reading
same,decrease of intracellular fluorescence (bis-oxonol),Rat-1 cells; valinomycin 0.01-1 nM for 2 hours or 3 days,55-60%
same,intracellular fluorescence after valinomycin treatment,"Rat-1 cells; valinomycin 0.01-1 nM for 2 hours or 3 days, 0.44-0.5 prior to treatment",0.18-0.20
same,activity at 1 µM,Rat-1 fibroblast cells,67%
same,activity at 1 µM,MS1 endothelial cells,92%
same,activity at 1 µM,MDCK epithelial cells,82%
same,radiation protective effect across concentrations,[1],very similar radiation protective effects
